Test results from the NIST ThermoML archive (doi:10.1021/je060271a).
Numbers after ± are expanded uncertainties.

Conditions: 303.15 K, Liquid, Vibrating tube method

CCCCC(=O)OCC(COC(=O)CCCC)(COC(=O)CCCC)COC(=O)CCCC [pentaerythritol tetrapentanoate]
Conditions | mass density [kg/m3]
27156 kPa | 1027.3 ± 1.2
27191 kPa | 1027.3 ± 1.2
27233 kPa | 1027.5 ± 1.2
27268 kPa | 1027.3 ± 1.2
27303 kPa | 1027.5 ± 1.2
27338 kPa | 1027.4 ± 1.2
27381 kPa | 1027.4 ± 1.2
27416 kPa | 1027.6 ± 1.2
27452 kPa | 1027.5 ± 1.2
27495 kPa | 1027.6 ± 1.2
27531 kPa | 1027.5 ± 1.2
27574 kPa | 1027.6 ± 1.2
27611 kPa | 1027.7 ± 1.2
27647 kPa | 1027.7 ± 1.2
27683 kPa | 1027.6 ± 1.2
27727 kPa | 1027.6 ± 1.2
27763 kPa | 1027.7 ± 1.2
27800 kPa | 1027.6 ± 1.2
27844 kPa | 1027.8 ± 1.2
27881 kPa | 1027.8 ± 1.2
27919 kPa | 1027.7 ± 1.2
27964 kPa | 1027.8 ± 1.2
28003 kPa | 1027.8 ± 1.2
28041 kPa | 1027.8 ± 1.2
28089 kPa | 1027.9 ± 1.2
28128 kPa | 1027.9 ± 1.2
28160 kPa | 1027.9 ± 1.2
28193 kPa | 1027.8 ± 1.2
28221 kPa | 1027.9 ± 1.2
28249 kPa | 1028 ± 1.2
28282 kPa | 1028 ± 1.2
28310 kPa | 1028 ± 1.2
28338 kPa | 1028 ± 1.2
28366 kPa | 1028 ± 1.2
28399 kPa | 1028 ± 1.2
28427 kPa | 1027.9 ± 1.2
28461 kPa | 1028.1 ± 1.2
28489 kPa | 1028 ± 1.2
28518 kPa | 1028.1 ± 1.2
28546 kPa | 1028.1 ± 1.2
28580 kPa | 1028 ± 1.2
28609 kPa | 1028.1 ± 1.2
28638 kPa | 1028.2 ± 1.2
28672 kPa | 1028.1 ± 1.2
28700 kPa | 1028.2 ± 1.2
28729 kPa | 1028.2 ± 1.2
28764 kPa | 1028.3 ± 1.2
28792 kPa | 1028.2 ± 1.2
28821 kPa | 1028.3 ± 1.2
28856 kPa | 1028.3 ± 1.2
28885 kPa | 1028.5 ± 1.2
28915 kPa | 1028.3 ± 1.2
28950 kPa | 1028.4 ± 1.2
28978 kPa | 1028.3 ± 1.2
29008 kPa | 1028.4 ± 1.2
29043 kPa | 1028.4 ± 1.2
29072 kPa | 1028.4 ± 1.2
29102 kPa | 1028.5 ± 1.2
29132 kPa | 1028.5 ± 1.2
29168 kPa | 1028.4 ± 1.2
29198 kPa | 1028.4 ± 1.2
29228 kPa | 1028.5 ± 1.2
29264 kPa | 1028.6 ± 1.2
29294 kPa | 1028.6 ± 1.2
29325 kPa | 1028.5 ± 1.2
29356 kPa | 1028.5 ± 1.2
29392 kPa | 1028.5 ± 1.2
29422 kPa | 1028.6 ± 1.2
29453 kPa | 1028.6 ± 1.2
29483 kPa | 1028.6 ± 1.2
29520 kPa | 1028.7 ± 1.2
29550 kPa | 1028.7 ± 1.2
29587 kPa | 1028.7 ± 1.2
29617 kPa | 1028.6 ± 1.2
29648 kPa | 1028.8 ± 1.2
29684 kPa | 1028.7 ± 1.2
29716 kPa | 1028.7 ± 1.2
29749 kPa | 1028.8 ± 1.2
29779 kPa | 1028.8 ± 1.2
29810 kPa | 1028.8 ± 1.2
